According to PMC8700061, “Fragment-Sized and Bidentate (Immuno)Proteasome Inhibitors Derived from Cysteine and Threonine Targeting Warheads” (Cells, 2021):

Experiments:
β1i subunit of human iCP = molecular target: T1, β1i subunit of human iCP (Homo sapiens, UniProt P28065+P40306); assay: Inhibition of β1i activity (RA, IC50), Ac-PAL-AMC; assay type: biochemical; details: PA28α; for IC50: 30 min pre-incubation; for remaining activity at 10 µM: Table 3, read-out: β1i residual activity at 10 µM
T1 construct: purchased Boston Biochem, Inc., Cambridge, MA, USA
Experimental: (§1) Residual activity measurements were performed at 10 μM final concentrations in the assay buffer (0.01% SDS, 50 mM Tris-HCl, 0.5 mM EDTA, pH 7.4). Stock solutions of the compounds were prepared in DMSO. To 50 μL of each compound in buffer, 25 μL of 0.8 nM human iCP or human cCP (both from Boston Biochem, Inc., Cambridge, MA, USA) were added. After incubation at 37 °C for 30 min, the reaction was started by adding of 25 μL of 100 μM relevant fluorogenic substrate: acetyl-Nle-Pro-Nle-Asp-AMC (Ac-nLPnLD-AMC, (Bachem, Bubendorf, Switzerland)) for β1, acetyl-Pro-Ala-Leu-7-amino-4-methylcoumarin (Ac-PAL-AMC, (Boston Biochem, Inc., Cambridge, MA, USA)) for β1i, t-butyloxycarbonyl-Leu-Arg-Arg-7-amino-4-methylcoumarin (Boc-LRR-AMC, (Bachem, Bubendorf, Switzerland)) for β2 and β2i, succinyl-Leu-Leu-Val-Tyr-7-amino-4-methylcoumarin (Suc-LLVY-AMC) (Bachem, Bubendorf, Switzerland) for β5 and β5i. Reaction progress was recorded on BioTek Synergy HT microplate reader by monitoring fluorescence at 460 nm (λex = 360 nm) for 90 min at 37 °C. The initial linear ranges were used to calculate velocity and determine residual activity. In the case of evaluation of β1, βi, β2, and β2i activities, the assay buffer was modified by replacing SDS with the proteasomal activator PA28α (Boston Biochem, Inc., Cambridge, MA, USA).
Final assay mixtures contained 0.2 nM human iCP or 0.2 nM human cCP in assay buffer (0.01% SDS (or PA28α in cases of β1, β1i subunits), 50 mM Tris-HCl, 0.5 mM EDTA, pH 7.4). Inhibitors were dissolved in DMSO and added to the black 96-well plates for at least eight different concentrations (the final concentration of DMSO was not more than 1%). After 30 min of incubation at 37 °C, the reaction was started by adding the substrate Suc-LLVY-AMC (for β5 and β5i) or Ac-nLPnLD-AMC (for β1) or Ac-PAL-AMC (for β1i). Fluorescence was monitored at 460 nm (λex = 360 nm) for 90 min at 37 °C. The progress of the reactions was recorded and the initial linear ranges were used to calculate the velocity. IC50 values were calculated using GraphPadPrism (GraphPad Software, San Diego, CA, USA) and are means from at least three independent determinations.

[1] = UV-Vis-based stability assay in buffer; assay type: physicochemical; details: for Stability in Buffer (UV-Vis-based assay): after 1 h, assay buffer pH 7.4, 37 °C, 50 µM; for Stability in buffer solutions: assay buffer / PBS pH 7.4
Experimental: The aqueous stability of all compounds was determined spectrophotometrically by following the changes in the absorption spectra of the compounds. The buffer solution (50 mM Tris-HCl, 0.5 mM EDTA, pH 7.4) was pre-incubated at 37 °C. Aliquots of the compounds studied (1 mM in DMSO) were transferred to a 96-well flat-bottom UV-transparent microplate (Corning, CLS3635, Corning Inc, Corning, NY, USA) containing the buffer solution to obtain a 50 μM solution containing 5% DMSO (final volume, 300 μL). The plate was incubated without lid at 37 °C in a plate reader (Synergy H4, BioTek Instruments, Inc., Santa Clara, CA, USA) and the absorbance spectrum (244–400 nm) was acquired in sweep mode after 0, 15, 30, 60, 120, 180, and 240 min using a discontinuous kinetic procedure in Gen5 software (BioTek Instruments, Inc., Santa Clara, CA, USA). The time required to read the entire plate was 3 min. To determine the baseline, the compound solution was replaced with pure DMSO and subtracted from each reading. Compounds with an absorbance maximum of less than 0.20 AU were not evaluated using these assays due to the high experimental error. For other compounds, the relative absorbance difference between the first time point and 60 min at the most responsive wavelength was calculated. If the relative absorbance difference for the compound in the buffer was below 0.1, between 0.1–0.2, and above 0.2, the compound was classified as stable, intermediate, and unstable, respectively.

hMAO-B = molecular target: T2, hMAO-B (Homo sapiens, UniProt P27338); assay: Monoamine oxidase assay, hMAO-B; assay type: biochemical; details: 30 min pre-incubation, read-out: Residual activity [%] ± SD, hMAO-B
T2 construct: purchased Sigma Aldrich; host or cells: BTI-TN-5B1-4 insect cells
T2 sequence (P27338 1-520): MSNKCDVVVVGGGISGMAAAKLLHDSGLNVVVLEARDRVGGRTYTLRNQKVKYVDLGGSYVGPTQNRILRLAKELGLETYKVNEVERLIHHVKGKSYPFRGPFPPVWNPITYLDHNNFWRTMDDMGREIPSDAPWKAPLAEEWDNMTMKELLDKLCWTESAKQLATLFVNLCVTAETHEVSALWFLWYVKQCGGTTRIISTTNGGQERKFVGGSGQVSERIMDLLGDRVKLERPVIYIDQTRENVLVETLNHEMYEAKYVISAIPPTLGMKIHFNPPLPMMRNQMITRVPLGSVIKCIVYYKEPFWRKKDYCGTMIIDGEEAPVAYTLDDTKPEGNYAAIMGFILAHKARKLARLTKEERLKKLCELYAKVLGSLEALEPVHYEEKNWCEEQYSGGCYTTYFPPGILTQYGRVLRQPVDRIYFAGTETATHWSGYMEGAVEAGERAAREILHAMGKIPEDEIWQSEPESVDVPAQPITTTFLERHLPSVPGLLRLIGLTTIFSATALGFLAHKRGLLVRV
Experimental: The effects of the test compounds on hMAO were investigated using fluorimetric assay. Recombinant hMAO-A and hMAO-B, expressed in BTI-TN-5B1-4 insect cells, horseradish peroxidase type II and p-tyramine hydrochloride were purchased from Sigma Aldrich. Amplex Red was synthesized as previously described.
Briefly, 50 mM sodium phosphate buffer (pH = 7.4, 0.05 vol.% Triton X-114) containing the compounds or the reference inhibitors and hMAO were incubated at 37 °C for 30 min. The reaction was started by adding Amplex Red (final concentration, 250 µM), horseradish peroxidase (final activity, 1 U/mL), and p-tyramine (final concentration, 1 mM). The increase in fluorescence (λex = 530 nm, λem = 590 nm) was monitored for 30 min at 37 °C. DMSO at a concentration of 1.5% (v/v) was used for the control experiments. For the determination of blank (b), the enzyme was replaced by phosphate-buffered solution. Each measurement was performed in duplicate. Inhibitory potencies were expressed as residual activities (RA), as described under the Cholinesterase assay section.

β2 subunit of human cCP = molecular target: T3, β2 subunit of human cCP (Homo sapiens, UniProt P49720+Q99436); assay: Residual β2 activity, Boc-LRR-AMC; assay type: biochemical; details: PA28α; for β2 (RA [%]): 10 µM; for remaining activity at 10 µM: Table 3, read-out: β2 (RA [%])
T3 construct: purchased Boston Biochem, Inc., Cambridge, MA, USA
Experimental: as §1

| SMILES | IC50 (β1i subunit of human iCP) [µM] | Stability in Buffer (UV-Vis-based assay) [1] | remaining activity at 100 µM (hMAO-B) [%] | β2 (RA [%]) (β2 subunit of human cCP; Table 3) | remaining activity at 10 µM (β1i subunit of human iCP) [%] | remaining activity at 10 µM (β2 subunit of human cCP) [%] | β2 (RA [%]) (β2 subunit of human cCP; Table 6) | Stability in buffer solutions [1] |
| --- | --- | --- | --- | --- | --- | --- | --- | --- |
| COc1cccc2oc(C#N)nc12 [Compound 6] | 78 | stable ^c,d (relative absorbance difference for the compound in the buffer was below 0.1) | 35 ± 1 | NA (NA, Not active (RA above 90%)) |  |  |  |  |
| N#Cc1nc2c(O)cccc2o1 [Compound 10] |  | stable ^c (relative absorbance difference for the compound in the buffer was below 0.1) | > 50 |  | > 90 | > 90 |  |  |
| N#Cc1nc2cc(O)ccc2o1 [Compound 11] |  | stable ^c (relative absorbance difference for the compound in the buffer was below 0.1) | 29 |  | > 90 | > 90 |  |  |
| N#Cc1nc2cccc(O)c2o1 [Compound 13] |  | stable ^c (relative absorbance difference for the compound in the buffer was below 0.1) | > 50 |  | > 90 | 71 |  |  |
| CC(=O)Oc1cccc2oc(C#N)nc12 [Compound 14] |  | stable ^c (relative absorbance difference for the compound in the buffer was below 0.1) | > 50 |  | > 90 | > 90 |  |  |
| CC(=O)Oc1ccc2oc(C#N)nc2c1 [Compound 15] |  | stable ^c (relative absorbance difference for the compound in the buffer was below 0.1) | 33 |  | > 90 | > 90 |  |  |
| C=Cc1nc(CC(=O)N[C@@H](CC(C)C)B2O[C@@H]3C[C@@H]4C[C@@H](C4(C)C)[C@]3(C)O2)cs1 [Compound 28] | 2.2 ± 0.1 |  | > 50 |  |  |  | NA (NA, Not active (RA above 95%)) |  |
| CC(C)C[C@H](NC(=O)CCn1c(C#N)nc2ccccc21)B1O[C@@H]2C[C@@H]3C[C@@H](C3(C)C)[C@]2(C)O1 [Compound 30] | 1.2 ± 0.1 | stable ^b,c (relative absorbance difference for the compound in the buffer was below 0.1) | > 50 |  |  |  | NA (NA, Not active (RA above 95%)) |  |
| CC(C)C[C@H](NC(=O)CCCn1c(C#N)nc2ccccc21)B1O[C@@H]2C[C@@H]3C[C@@H](C3(C)C)[C@]2(C)O1 [Compound 31] | 6 ± 3.2 | stable ^b,c (relative absorbance difference for the compound in the buffer was below 0.1) | > 50 |  |  |  | NA (NA, Not active (RA above 95%)) |  |
| CC(C)C[C@H](NC(=O)CCn1c(C#N)nc2ccccc21)B(O)O [Compound 34] | 2.8 ± 0.5 |  | > 50 |  |  |  | NA (NA, Not active (RA above 95%)) |  |
| CC(C)C[C@H](NC(=O)CCCn1c(C#N)nc2ccccc21)B(O)O [Compound 35] | 9.4 ± 1.9 | stable ^b (relative absorbance difference for the compound in the buffer was below 0.1) | > 50 |  |  |  | NA (NA, Not active (RA above 95%)) |  |
| CC(C)C[C@H](NC(=O)CCn1c(C#N)nc2cccc(Cl)c21)B1O[C@@H]2C[C@@H]3C[C@@H](C3(C)C)[C@]2(C)O1 [Compound 38] | 1.9 | stable ^b,c (relative absorbance difference for the compound in the buffer was below 0.1) | 42 |  |  |  | NA (NA, Not active (RA above 95%)) |  |
| CC(C)C[C@H](NC(=O)Cc1ccc2oc(C#N)nc2c1)B1O[C@@H]2C[C@@H]3C[C@@H](C3(C)C)[C@]2(C)O1 [Compound 39] | 1.3 | stable ^b,c (relative absorbance difference for the compound in the buffer was below 0.1) | 47 ± 1 |  |  |  | NA (NA, Not active (RA above 95%)) | stable |
| CC(C)C[C@H](NC(=O)Cc1ccc2oc(C#N)nc2c1)B(O)O [Compound 40] | 2.1 ± 0.1 | stable ^b (relative absorbance difference for the compound in the buffer was below 0.1) | 44 |  |  |  | NA (NA, Not active (RA above 95%)) | stable |
